This test concerns KIR2DS2. Briefly: KIR2DS2 tetramer staining of peptide-loaded 721.174 cells (flow cytometry). The following applies: 721.174 cells loaded with peptide; KIR2DS2 tetramer conjugated to phycoerythrin; no peptide 10503. It is filed as binding. From the text: 721.174 cells were loaded with peptide and then stained using a tetramer of KIR2DS2 conjugated to phycoerythrin. Shown is a flow cytometry histogram plot of the staining of the 721.174 cells in the presence or absence of peptide. Mean fluorescence intensitites are indicated: 14811 for NAPLVHATL versus 10503 for no peptide.
On the technique in general: In flow cytometry, cells or beads pass a laser one at a time.

Chain of KIR2DS2 (P43631 22-245 limits assumed): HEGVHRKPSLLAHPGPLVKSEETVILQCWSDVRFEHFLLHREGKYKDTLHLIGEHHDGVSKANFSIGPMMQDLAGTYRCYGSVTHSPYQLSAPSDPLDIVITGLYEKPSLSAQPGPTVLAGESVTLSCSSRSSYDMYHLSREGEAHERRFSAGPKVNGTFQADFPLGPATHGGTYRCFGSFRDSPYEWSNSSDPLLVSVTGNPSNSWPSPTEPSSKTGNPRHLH
Chain of KIR2DS2 (P10321 25-366, further chain): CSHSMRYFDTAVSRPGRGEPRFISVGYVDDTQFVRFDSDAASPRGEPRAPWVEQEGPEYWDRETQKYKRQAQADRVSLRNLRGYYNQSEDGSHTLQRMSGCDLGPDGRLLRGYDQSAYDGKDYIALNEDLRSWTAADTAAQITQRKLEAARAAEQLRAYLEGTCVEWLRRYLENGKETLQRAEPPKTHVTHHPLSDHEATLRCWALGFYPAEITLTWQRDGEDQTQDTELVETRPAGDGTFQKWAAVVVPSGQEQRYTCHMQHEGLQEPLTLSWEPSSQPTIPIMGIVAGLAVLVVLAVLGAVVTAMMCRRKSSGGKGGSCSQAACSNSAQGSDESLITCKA
Chain of KIR2DS2 (P61769 21-119 partner): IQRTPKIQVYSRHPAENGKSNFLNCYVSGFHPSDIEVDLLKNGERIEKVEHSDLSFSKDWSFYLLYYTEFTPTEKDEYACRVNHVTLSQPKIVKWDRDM

Consider “NAPLVHATL [peptide derived from Exportin-1 (XPO1)]”, for which the “Mean fluorescence intensity of KIR2DS2 tetramer staining” value was 14811.

For the origin of these results see US20220096614A1, “PEPTIDE-INDUCED NK CELL ACTIVATION” (University of Southampton, priority 2019, published 2022).
